Measurements from US20250388589A1, “TRICYCLIC HETEROCYCLIC DERIVATIVES, COMPOSITIONS AND USES THEREOF” (Danatlas Pharmaceuticals Co., Ltd., priority 2022, published 2025).

Assays:
[1] = target: hPARG (C-terminal His6-tag) (Homo sapiens (Human), UniProt Q86W56); test: PARG Enzymatic Activity Assay (HTRF); format: biochemical; settings: hPARG 65 pM final, biotinylated-NAD ribosylated PARP1 8 nM final
Summary of the method: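 E. coli-expressed enzyme (65 pM final) preincubated 60 min RT with compounds (10-point 4-fold dilution, duplicate) in 50 mM Tris pH 7.4, 3 mM EDTA, 1 mM DTT, 50 mM KCl, 0.01% Tween 20. Biotinylated-NAD ribosylated PARP1 substrate (8 nM final) reacted 10 min RT; Eu-streptavidin/anti-6HIS-XL665 HTRF read 665/620 nm after 60 min. IC50 from 4-parameter Hill fit.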

Kuramochi cell line = test: Cell Viability Assay (Cell Titer-Glo, 7 days); format: cell-based; settings: 168 h, Kuramochi cells, 7 days incubation, read-out: PARG Cell viability (IC50)
Summary of the method: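 Kuramochi cells in RPMI with 10% FBS, seeded at 400 cells/well, were treated with a 9-point 3-fold dilution series in duplicate for 7 days at 37 °C, 5% CO2. Viability by CellTiter-Glo luminescence, normalised to DMSO and medium-only controls; IC50 from 4-parameter Hill fit.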

hPARG (C-terminal His6-tag), sequence (Q86W56 whole entry): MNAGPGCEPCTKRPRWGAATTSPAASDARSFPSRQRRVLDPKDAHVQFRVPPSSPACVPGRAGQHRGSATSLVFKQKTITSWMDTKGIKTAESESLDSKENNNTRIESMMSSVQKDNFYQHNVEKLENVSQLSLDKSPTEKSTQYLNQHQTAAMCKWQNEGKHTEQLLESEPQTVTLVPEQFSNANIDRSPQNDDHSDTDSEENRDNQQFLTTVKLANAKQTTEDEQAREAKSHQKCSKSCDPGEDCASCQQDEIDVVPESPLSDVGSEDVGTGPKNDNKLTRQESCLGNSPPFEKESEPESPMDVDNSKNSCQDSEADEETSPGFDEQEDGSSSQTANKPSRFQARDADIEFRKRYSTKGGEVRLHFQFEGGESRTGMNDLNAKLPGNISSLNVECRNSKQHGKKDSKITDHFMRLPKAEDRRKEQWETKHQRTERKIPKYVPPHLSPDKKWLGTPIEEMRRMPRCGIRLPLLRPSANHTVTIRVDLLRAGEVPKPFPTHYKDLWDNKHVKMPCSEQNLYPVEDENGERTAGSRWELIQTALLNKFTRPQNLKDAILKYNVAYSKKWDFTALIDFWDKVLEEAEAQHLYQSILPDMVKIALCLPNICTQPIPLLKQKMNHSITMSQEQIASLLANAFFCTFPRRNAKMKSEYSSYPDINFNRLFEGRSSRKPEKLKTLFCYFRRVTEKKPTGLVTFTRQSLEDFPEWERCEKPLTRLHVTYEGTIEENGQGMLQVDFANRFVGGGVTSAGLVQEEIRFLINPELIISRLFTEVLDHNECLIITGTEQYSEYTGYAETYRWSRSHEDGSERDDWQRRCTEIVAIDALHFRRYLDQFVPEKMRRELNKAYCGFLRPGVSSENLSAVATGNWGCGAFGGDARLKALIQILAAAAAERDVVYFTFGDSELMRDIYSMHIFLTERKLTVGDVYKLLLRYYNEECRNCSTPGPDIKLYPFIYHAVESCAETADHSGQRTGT

SMILES | IC50 [1] | IC50 (Kuramochi cell line)
CC(C)C(=O)N1C[C@H](C)N(c2ncnc3c2c2ccc(S(=O)(=O)NC4(C#N)CC4)cc2n3-c2nnc(C(F)F)s2)C[C@@H]1C [Example 57, N-(1-cyanocyclopropyl)-9-(5-(difluoromethyl)-1,3,4-thiadiazol-2-yl)-4-((2S,5S)-4-isobutyryl-2,5-dimethylpiperazin-1-yl)-9H-pyrimido[4,5-b]indole-7-sulfonamide] | 100 to 1000 nM | 100 to 1000 nM
N#CC1(NS(=O)(=O)c2ccc3c4c(C5CCOCC5)ncnc4n(-c4nnc(C(F)F)s4)c3c2)CC1 [Example 79, N-(1-Cyanocyclopropyl)-9-(5-(difluoromethyl)-1,3,4-thiadiazol-2-yl)-4-(tetrahydro-2H-pyran-4-yl)-9H-pyrimido[4,5-b]indole-7-sulfonamide] | < 100 nM | < 100 nM
N#CC1(NS(=O)(=O)c2ccc3c4c(N5CCN(C(=O)C6CC6)CC5)ncnc4n(-c4nnc(C(F)(F)F)s4)c3c2)CC1 [Example 188, N-(1-Cyanocyclopropyl)-4-(4-(cyclopropanecarbonyl)piperazin-1-yl)-9-(5-(trifluoromethyl)-1,3,4-thiadiazol-2-yl)-9H-pyrimido[4,5-b]indole-7-sulfonamide] | < 100 nM | 100 to 1000 nM
CC(C)c1nnc(-n2c3cc(S(=O)(=O)NC4(C#N)CC4)ccc3c3c(N4CCN(C(=O)C5CC5)CC4)ncnc32)s1 [Example 186, N-(1-Cyanocyclopropyl)-4-(4-(cyclopropanecarbonyl)piperazin-1-yl)-9-(5-isopropyl-1,3,4-thiadiazol-2-yl)-9H-pyrimido[4,5-b]indole-7-sulfonamide] | 100 to 1000 nM | 100 to 1000 nM
CC1(NS(=O)(=O)c2ccc3c4c(C5CCN(C(=O)N6CC[C@H](O)C6)CC5)ncnc4n(-c4nnc(C(F)F)s4)c3c2)CC1 [Example 131, (S)-9-(5-(Difluoromethyl)-1,3,4-thiadiazol-2-yl)-4-(1-(3-hydroxypyrrolidine-1-carbonyl)piperidin-4-yl)-N-(1-methylcyclopropyl)-9H-pyrimido[4,5-b]indole-7-sulfonamide] | < 100 nM | < 100 nM
N#CC1(NS(=O)(=O)c2ccc3c4c(N5CCN(C(=O)N6CCCC6)CC5)ncnc4n(-c4nnc(C(F)F)s4)c3c2)CC1 [Example 41, N-(1-Cyanocyclopropyl)-9-(5-(difluoromethyl)-1,3,4-thiadiazol-2-yl)-4-(4-(pyrrolidine-1-carbonyl)piperazin-1-yl)-9H-pyrimido[4,5-b]indole-7-sulfonamide] | < 100 nM | < 100 nM
Cc1ccc(C(=O)N2CCN(c3ncnc4c3c3ccc(S(=O)(=O)NC5(C#N)CC5)cc3n4-c3nnc(C(F)F)s3)CC2)cn1 [Example 27, N-(1-Cyanocyclopropyl)-9-(5-(difluoromethyl)-1,3,4-thiadiazol-2-yl)-4-(4-(6-methylnicotinoyl)piperazin-1-yl)-9H-pyrimido[4,5-b]indole-7-sulfonamide] | < 100 nM | 100 to 1000 nM
C[C@@H]1CN(C(=O)N(C)C)CCN1c1ncnc2c1c1ccc(S(=O)(=O)NC3(C#N)CC3)cc1n2-c1nnc(C(F)F)s1 [Example 73, (R)-4-(7-(N-(1-Cyanocyclopropyl)sulfamoyl)-9-(5-(difluoromethyl)-1,3,4-thiadiazol-2-yl)-9H-pyrimido[4,5-b]indol-4-yl)-N,N,3-trimethylpiperazine-1-carboxamide] | < 100 nM | < 100 nM
N#CC1(NS(=O)(=O)c2ccc3c4c(N5CCN6CCC[C@H]6C5)ncnc4n(-c4nnc(C(F)F)s4)c3c2)CC1 [Example 160, (S)—N-(1-Cyanocyclopropyl)-9-(5-(difluoromethyl)-1,3,4-thiadiazol-2-yl)-4-(hexahydropyrrolo[1,2-a]pyrazin-2(1H)-yl)-9H-pyrimido[4,5-b]indole-7-sulfonamide] | < 100 nM | < 100 nM
CO[C@@H]1CCN(C(=O)N2CCC(c3ncnc4c3c3ccc(S(=O)(=O)NC5(C#N)CC5)cc3n4-c3nnc(C(F)F)s3)CC2)C1 [Example 135, (R)-N-(1-Cyanocyclo-propyl)-9-(5-(difluoromethyl)-1,3,4-thiadiazol-2-yl)-4-(1-(3-methoxypyrrolidine-1-carbonyl)piperidin-4-yl)-9H-pyrimido [4,5-b]indole-7-sulfonamide] | < 100 nM | < 100 nM

Second part, led by results:

IC50 [1] | SMILES | IC50 (Kuramochi cell line)
< 100 nM | N#CC1(NS(=O)(=O)c2ccc3c4c(N5CCS(=O)(=O)CC5)ncnc4n(-c4nnc(C(F)F)s4)c3c2)CC1 [Example 166, N-(1-cyanocyclopropyl)-9-(5-(difluoromethyl)-1,3,4-thiadiazol-2-yl)-4-(1,1-dioxidothiomorpholino)-9H-pyrimido[4,5-b]indole-7-sulfonamide] | 100 to 1000 nM
< 100 nM | N#CC1(NS(=O)(=O)c2ccc3c4c(N5CCN(C(=O)N6CCOCC6)CC5)ncnc4n(-c4nnc(C(F)F)s4)c3c2)CC1 [Example 8, N-(1-Cyanocyclopropyl)-9-(5-(difluoromethyl)-1,3,4-thiadiazol-2-yl)-4-(4-(morpholine-4-carbonyl)piperazin-1-yl)-9H-pyrimido[4,5-b]indole-7-sulfonamide] | < 100 nM
< 100 nM | N#CC1(NS(=O)(=O)c2ccc3c4c(C5CCN(C(=O)[C@@H]6CCCN6)CC5)ncnc4n(-c4nnc(C(F)F)s4)c3c2)CC1 [Example 124, (S)—N-(1-Cyanocyclopropyl)-9-(5-(difluoromethyl)-1,3,4-thiadiazol-2-yl)-4-(1-prolylpiperidin-4-yl)-9H-pyrimido[4,5-b]indole-7-sulfonamide] | 100 to 1000 nM
< 100 nM | N#CC1CCN(c2ncnc3c2c2ccc(S(=O)(=O)NC4(C#N)CC4)cc2n3-c2nnc(C(F)F)s2)CC1 [Example 49, N-(1-Cyanocyclopropyl)-4-(4-cyanopiperidin-1-yl)-9-(5-(difluoromethyl)-1,3,4-thiadiazol-2-yl)-9H-pyrimido[4,5-b]indole-7-sulfonamide] | < 100 nM
< 100 nM | COC1(C(F)(F)F)CCN(c2ncnc3c2c2ccc(S(=O)(=O)NC4(C#N)CC4)cc2n3-c2nnc(C(F)F)s2)CC1 [Example 47, N-(1-Cyanocyclopropyl)-9-(5-(difluoromethyl)-1,3,4-thiadiazol-2-yl)-4-(4-methoxy-4-(trifluoromethyl)piperidin-1-yl)-9H-pyrimido[4,5-b]indole-7-sulfonamide] | 100 to 1000 nM
< 100 nM | N#CC1(NS(=O)(=O)c2ccc3c4c(N5CCN(C(=O)C6CCOCC6)CC5)ncnc4n(-c4nnc(C(F)F)s4)c3c2)CC1 [Example 12, N-(1-Cyanocyclopropyl)-9-(5-(difluoromethyl)-1,3,4-thiadiazol-2-yl)-4-(4-(tetrahydro-2H-pyran-4-carbonyl)piperazin-1-yl)-9H-pyrimido[4,5-b]indole-7-sulfonamide] | < 100 nM
< 100 nM | CCS(=O)(=O)N1CCC(c2ncnc3c2c2ccc(S(=O)(=O)NC4(C#N)CC4)cc2n3-c2nnc(C(F)F)s2)CC1 [Example 122, N-(1-Cyanocyclopropyl)-9-(5-(difluoromethyl)-1,3,4-thiadiazol-2-yl)-4-(1-(ethylsulfonyl)piperidin-4-yl)-9H-pyrimido[4,5-b]indole-7-sulfonamide] | < 100 nM
< 100 nM | N#CC1(NS(=O)(=O)c2ccc3c4c(N5CCN(C(=O)C6COC6)CC5)ncnc4n(-c4nnc(C(F)F)s4)c3c2)CC1 [Example 66, N-(1-Cyanocyclopropyl)-9-(5-(difluoromethyl)-1,3,4-thiadiazol-2-yl)-4-(4-(oxetane-3-carbonyl)piperazin-1-yl)-9H-pyrimido[4,5-b]indole-7-sulfonamide] | < 100 nM
< 100 nM | N#CC1(NS(=O)(=O)c2ccc3c4c(N5CCc6cc(CO)cnc6C5)ncnc4n(-c4nnc(C(F)F)s4)c3c2)CC1 [Example 181, N-(1-Cyanocyclopropyl)-9-(5-(difluoromethyl)-1,3,4-thiadiazol-2-yl)-4-(3-(hydroxymethyl)-5,8-dihydro-1,7-napthyridin-7(6H)-yl)-9H-pyrimido[4,5-b]indole-7-sulfonamide] | 100 to 1000 nM
< 100 nM | N#CC1(NS(=O)(=O)c2ccc3c4c(N5CCC(N6CCCC6)[C@@H](F)C5)ncnc4n(-c4nnc(C(F)F)s4)c3c2)CC1 (stereo partly drawn) [Example 207, N-(1-Cyanocyclopropyl)-9-(5-(difluoromethyl)-1,3,4-thiadiazol-2-yl)-4-((3S)-3-fluoro-4-(pyrrolidin-1-yl)piperidin-1-yl)-9H-pyrimido[4,5-b]indole-7-sulfonamide] | < 100 nM
< 100 nM | N#CC1(NS(=O)(=O)c2ccc3c4c(N5CCN(C(=O)C6CCOC6)CC5)ncnc4n(-c4nnc(C(F)F)s4)c3c2)CC1 (centres unmarked) [Example 34, N-(1-Cyanocyclopropyl)-9-(5-(difluoromethyl)-1,3,4-thiadiazol-2-yl)-4-(4-(tetrahydrofuran-3-carbonyl)piperazin-1-yl)-9H-pyrimido[4,5-b]indole-7-sulfonamide] | < 100 nM
< 100 nM | CN1CC(C(=O)N2CCN(c3ncnc4c3c3ccc(S(=O)(=O)NC5(C#N)CC5)cc3n4-c3nnc(C(F)F)s3)CC2)C1 [Example 65, N-(1-Cyanocyclopropyl)-9-(5-(difluoromethyl)-1,3,4-thiadiazol-2-yl)-4-(4-(1-methylazetidine-3-carbonyl)piperazin-1-yl)-9H-pyrimido [4,5-b]indole-7-sulfonamide] | 100 to 1000 nM
